From PubChem BioAssay AID1963839 (Molecular Pharmacology Branch, DTP, NCI, 2024)

Tested on: 817829-284-R-J1-PDC complex spheroid viability
Test: Anticancer human tumor 817829-284-R-J1-PDC patient-derived colon adenocarcinoma cell line growth inhibition [POLQ]
Details: for IC50: curve of first compound; for viability, T/C: stronger effect = lower value
Summary of the method: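 Complex spheroid viability model combining PDC tumour cells with endothelial (HUVEC) and MSC stromal cells. Novobiocin, ART-558 or RP6685 were tested singly and in combination with standard and investigational anticancer drugs. Each was titrated in half-log steps from near clinical Cmax, or from 10 microM where Cmax was unknown.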

[1] = second compound 0.0316 µM, first compound 0.0316 µM
[2] = second compound 0.0316 µM, first compound 0.1 µM
[3] = second compound 0.0316 µM, first compound 0.316 µM
[4] = second compound 0.0316 µM, first compound 1 µM
[5] = second compound 0.0316 µM, first compound 3.16 µM
[6] = second compound 0.0316 µM, first compound 10 µM
[7] = second compound 0.1 µM, first compound 0.0316 µM
[8] = second compound 0.1 µM, first compound 0.1 µM
[9] = second compound 0.1 µM, first compound 0.316 µM
[10] = second compound 0.1 µM, first compound 1 µM
[11] = second compound 0.1 µM, first compound 3.16 µM
[12] = second compound 0.1 µM, first compound 10 µM
[13] = second compound 0.316 µM, first compound 0.0316 µM
[14] = second compound 0.316 µM, first compound 0.1 µM
[15] = second compound 0.316 µM, first compound 0.316 µM
[16] = second compound 0.316 µM, first compound 1 µM
[17] = second compound 0.316 µM, first compound 3.16 µM
[18] = second compound 0.316 µM, first compound 10 µM
[19] = second compound 1 µM, first compound 0.0316 µM
[20] = second compound 1 µM, first compound 0.1 µM
[21] = second compound 1 µM, first compound 0.316 µM
[22] = second compound 1 µM, first compound 1 µM
[23] = second compound 1 µM, first compound 3.16 µM
[24] = second compound 1 µM, first compound 10 µM
[25] = second compound 3.16 µM, first compound 0.0316 µM
[26] = second compound 3.16 µM, first compound 0.1 µM
[27] = second compound 3.16 µM, first compound 0.316 µM
[28] = second compound 3.16 µM, first compound 1 µM
[29] = second compound 3.16 µM, first compound 3.16 µM
[30] = second compound 3.16 µM, first compound 10 µM
[31] = second compound 10 µM, first compound 0.0316 µM
[32] = second compound 10 µM, first compound 0.1 µM
[33] = second compound 10 µM, first compound 0.316 µM
[34] = second compound 10 µM, first compound 1 µM
[35] = second compound 10 µM, first compound 3.16 µM
[36] = second compound 10 µM, first compound 10 µM
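Further: spheroids exposed to compounds for 7 days.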
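Wherever viability, T/C is given: 100% = DMSO vehicle-treated spheroids.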

CCc1cc2c(N3CCc4c(cc(Cn5ccnc5)cc4-c4cn(C)nc4C(F)(F)F)C3=O)cc(C)nc2c(OC)n1 + Nc1ccc(C#CCN(C(=O)Cc2ncc(C(F)(F)F)cc2C(F)(F)F)c2ccc(F)cc2)nn1 gave an IC50 (second compound 0.0316 µM) of 1.75 µM, an IC50 (second compound 0.1 µM) of 2.07 µM and an IC50 (second compound 0.316 µM) of 1.65 µM. It also gave an IC50 (second compound 1 µM) of 2.19 µM, an IC50 (second compound 3.16 µM) of 0.973 µM and an IC50 (second compound 10 µM) of 0.963 µM. For the same compound, the viability, T/C [1] was 85.5%, the viability, T/C [2] was 73.8% and the viability, T/C [3] was 67.8%. It also gave a viability, T/C [4] of 56.1%, a viability, T/C [5] of 43.7% and a viability, T/C [6] of 31.4%. It also gave a viability, T/C [7] of 101%, a viability, T/C [8] of 80.5% and a viability, T/C [9] of 71.9%. For the same compound, the viability, T/C [10] was 62.2%, the viability, T/C [11] was 46.7% and the viability, T/C [12] was 26.7%. The viability, T/C [13] was 92.9%, the viability, T/C [14] was 80.3% and the viability, T/C [15] was 71.7%. It also gave a viability, T/C [16] of 57.1%, a viability, T/C [17] of 40.4% and a viability, T/C [18] of 30%. For the same compound, the viability, T/C [19] was 87%, the viability, T/C [20] was 66.3% and the viability, T/C [21] was 72.4%. The viability, T/C [22] was 82.6%, the viability, T/C [23] was 37.3% and the viability, T/C [24] was 23%. For the same compound, the viability, T/C [25] was 98%, the viability, T/C [26] was 76.7% and the viability, T/C [27] was 65.5%. It also gave a viability, T/C [28] of 49%, a viability, T/C [29] of 37.8% and a viability, T/C [30] of 29.1%. The viability, T/C [31] was 101%, the viability, T/C [32] was 71.3% and the viability, T/C [33] was 68.5%. The viability, T/C [34] was 50.2%, the viability, T/C [35] was 38.3% and the viability, T/C [36] was 30.4%.
COc1cc2cc(C(=O)CCC(=O)O)sc2cc1OC + Nc1ccc(C#CCN(C(=O)Cc2ncc(C(F)(F)F)cc2C(F)(F)F)c2ccc(F)cc2)nn1 showed an IC50 (second compound 0.0316 µM) of over 10 µM, an IC50 (second compound 0.1 µM) of over 10 µM and an IC50 (second compound 0.316 µM) of over 10 µM. The IC50 (second compound 1 µM) was over 10 µM, the IC50 (second compound 3.16 µM) was over 10 µM and the IC50 (second compound 10 µM) was over 10 µM. The viability, T/C [1] was 91.1%, the viability, T/C [2] was 98.4% and the viability, T/C [3] was 90.1%. The viability, T/C [4] was 110%, the viability, T/C [5] was 136% and the viability, T/C [6] was 99.3%. The viability, T/C [7] was 99.4%, the viability, T/C [8] was 97.4% and the viability, T/C [9] was 101%. For the same compound, the viability, T/C [10] was 86.8%, the viability, T/C [11] was 105% and the viability, T/C [12] was 105%. For the same compound, the viability, T/C [13] was 93.1%, the viability, T/C [14] was 101% and the viability, T/C [15] was 114%. It also gave a viability, T/C [16] of 110%, a viability, T/C [17] of 108% and a viability, T/C [18] of 110%. It also gave a viability, T/C [19] of 96.1%, a viability, T/C [20] of 97% and a viability, T/C [21] of 104%. The viability, T/C [22] was 95.9%, the viability, T/C [23] was 103% and the viability, T/C [24] was 112%. The viability, T/C [25] was 102%, the viability, T/C [26] was 107% and the viability, T/C [27] was 99.7%. It also gave a viability, T/C [28] of 112%, a viability, T/C [29] of 117% and a viability, T/C [30] of 108%. It also gave a viability, T/C [31] of 99.8%, a viability, T/C [32] of 109% and a viability, T/C [33] of 98.1%. For the same compound, the viability, T/C [34] was 95.3%, the viability, T/C [35] was 93% and the viability, T/C [36] was 91.7%.
